The source made the active and inactive calls. No cut-off for these calls is given here.
Tests used:
[1] = Induction of apoptosis in human ANGM-CSS cells assessed as early apoptotic cells at 1 uM after 7 days by annexin V-FITC/7-AAD dual staining based cell analysis (reference value: 2.12%); format: functional
ANGM-CSS [2] = test: Induction of human GSC differentiation derived from ANGM-CSS cells assessed as down regulation of nestin mRNA expression at 1 uM after 7 days by RT-PCR analysis; format: functional, cell-based
[3] = biological target: Dual specificity mitogen-activated protein kinase kinase 1 (Homo sapiens) (UniProt Q02750); test: Inhibition of MEK1 (unknown origin) at 1 uM by selectscreen kinase profiling assay in presence of ATP
Sequence of Dual specificity mitogen-activated protein kinase kinase 1 (Homo sapiens) (Q02750 whole entry): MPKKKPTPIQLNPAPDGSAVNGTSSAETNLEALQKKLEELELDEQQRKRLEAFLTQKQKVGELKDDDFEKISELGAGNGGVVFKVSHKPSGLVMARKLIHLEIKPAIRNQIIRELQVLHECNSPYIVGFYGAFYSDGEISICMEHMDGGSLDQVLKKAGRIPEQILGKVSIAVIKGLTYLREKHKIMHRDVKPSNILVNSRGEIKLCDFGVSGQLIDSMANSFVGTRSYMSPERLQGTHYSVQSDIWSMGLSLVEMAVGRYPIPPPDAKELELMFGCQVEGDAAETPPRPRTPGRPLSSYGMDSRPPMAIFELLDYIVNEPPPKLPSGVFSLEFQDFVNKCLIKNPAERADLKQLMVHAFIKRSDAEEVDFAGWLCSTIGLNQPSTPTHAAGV

[4] = biological target: T1, 3-phosphoinositide-dependent protein kinase 1 (Homo sapiens, UniProt O15530); test: Inhibition of PDK1 (unknown origin) incubated for 1 hr by Z'Lyte assay
T1 sequence (O15530 whole entry): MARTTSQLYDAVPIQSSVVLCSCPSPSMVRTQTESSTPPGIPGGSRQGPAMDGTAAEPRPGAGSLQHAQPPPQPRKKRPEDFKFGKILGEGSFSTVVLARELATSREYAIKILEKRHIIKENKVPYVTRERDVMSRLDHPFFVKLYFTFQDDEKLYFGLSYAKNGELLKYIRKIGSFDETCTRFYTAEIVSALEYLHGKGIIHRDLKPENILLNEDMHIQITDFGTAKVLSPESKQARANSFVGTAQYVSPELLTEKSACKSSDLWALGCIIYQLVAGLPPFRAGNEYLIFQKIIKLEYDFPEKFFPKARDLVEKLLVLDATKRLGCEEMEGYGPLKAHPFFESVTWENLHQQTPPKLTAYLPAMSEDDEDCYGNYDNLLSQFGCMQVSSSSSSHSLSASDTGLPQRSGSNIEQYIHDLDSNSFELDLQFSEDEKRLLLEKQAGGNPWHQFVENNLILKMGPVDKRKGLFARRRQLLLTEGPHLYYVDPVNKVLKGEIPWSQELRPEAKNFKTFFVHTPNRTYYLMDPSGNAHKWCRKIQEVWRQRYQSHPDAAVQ

[5] = Cell cycle arrest in human ANGM-CSS cells assessed as accumulation at S phase at 1 uM after 7 days by based fluorescent reagent based cell analysis (reference value: 4.1%); format: functional
[6] = biological target: CDK2/Cyclin A2 (Homo sapiens) (UniProt P24941+P20248); test: Inhibition of CDK2/cyclin A (unknown origin) at 1 uM by selectscreen kinase profiling assay in presence of ATP; format: protein-complex assay
[7] = biological target: Tyrosine-protein kinase Lck (Homo sapiens) (UniProt P06239); test: Inhibition of LCK (unknown origin) at 1 uM by selectscreen kinase profiling assay in presence of ATP
[8] = Cell cycle arrest in human ANGM-CSS cells assessed as accumulation at G2/M phase at 1 uM after 7 days by based fluorescent reagent based cell analysis (reference value: 23.8%); format: functional
[9] = biological target: Serine/threonine-protein kinase Chk1 (Homo sapiens) (UniProt O14757); test: Inhibition of CHEK1 (unknown origin) at 1 uM by selectscreen kinase profiling assay in presence of ATP
Sequence of Serine/threonine-protein kinase Chk1 (Homo sapiens) (O14757 whole entry): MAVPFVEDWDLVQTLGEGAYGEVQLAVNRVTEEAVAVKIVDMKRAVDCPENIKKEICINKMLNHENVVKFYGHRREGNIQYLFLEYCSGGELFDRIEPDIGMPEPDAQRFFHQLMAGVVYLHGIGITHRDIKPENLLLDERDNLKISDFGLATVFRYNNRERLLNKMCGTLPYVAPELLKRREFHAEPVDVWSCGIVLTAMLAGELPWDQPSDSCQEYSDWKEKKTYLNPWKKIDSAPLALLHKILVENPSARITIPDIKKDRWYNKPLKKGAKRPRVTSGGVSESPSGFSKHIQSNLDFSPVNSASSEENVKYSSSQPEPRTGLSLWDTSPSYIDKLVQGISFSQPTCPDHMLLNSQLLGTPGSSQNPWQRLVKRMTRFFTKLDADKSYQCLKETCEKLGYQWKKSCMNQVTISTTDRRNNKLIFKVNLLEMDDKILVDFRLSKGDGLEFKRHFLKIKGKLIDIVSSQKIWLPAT

[10] = Induction of apoptosis in human ANGM-CSS cells assessed as late apoptotic cells at 1 uM after 7 days by annexin V-FITC/7-AAD dual staining based cell analysis (reference value: 3.39%); format: functional
[11] = biological target: Rho-associated protein kinase 2 (Homo sapiens) (UniProt O75116); test: Inhibition of ROCK2 (unknown origin) at 1 uM by selectscreen kinase profiling assay in presence of ATP
[12] = biological target: Serine/threonine-protein kinase MRCK alpha (Homo sapiens) (UniProt Q5VT25); test: Inhibition of MRCKalpha (unknown origin) at 1 uM by selectscreen kinase profiling assay in presence of ATP
Sequence of Serine/threonine-protein kinase MRCK alpha (Homo sapiens) (Q5VT25 whole entry): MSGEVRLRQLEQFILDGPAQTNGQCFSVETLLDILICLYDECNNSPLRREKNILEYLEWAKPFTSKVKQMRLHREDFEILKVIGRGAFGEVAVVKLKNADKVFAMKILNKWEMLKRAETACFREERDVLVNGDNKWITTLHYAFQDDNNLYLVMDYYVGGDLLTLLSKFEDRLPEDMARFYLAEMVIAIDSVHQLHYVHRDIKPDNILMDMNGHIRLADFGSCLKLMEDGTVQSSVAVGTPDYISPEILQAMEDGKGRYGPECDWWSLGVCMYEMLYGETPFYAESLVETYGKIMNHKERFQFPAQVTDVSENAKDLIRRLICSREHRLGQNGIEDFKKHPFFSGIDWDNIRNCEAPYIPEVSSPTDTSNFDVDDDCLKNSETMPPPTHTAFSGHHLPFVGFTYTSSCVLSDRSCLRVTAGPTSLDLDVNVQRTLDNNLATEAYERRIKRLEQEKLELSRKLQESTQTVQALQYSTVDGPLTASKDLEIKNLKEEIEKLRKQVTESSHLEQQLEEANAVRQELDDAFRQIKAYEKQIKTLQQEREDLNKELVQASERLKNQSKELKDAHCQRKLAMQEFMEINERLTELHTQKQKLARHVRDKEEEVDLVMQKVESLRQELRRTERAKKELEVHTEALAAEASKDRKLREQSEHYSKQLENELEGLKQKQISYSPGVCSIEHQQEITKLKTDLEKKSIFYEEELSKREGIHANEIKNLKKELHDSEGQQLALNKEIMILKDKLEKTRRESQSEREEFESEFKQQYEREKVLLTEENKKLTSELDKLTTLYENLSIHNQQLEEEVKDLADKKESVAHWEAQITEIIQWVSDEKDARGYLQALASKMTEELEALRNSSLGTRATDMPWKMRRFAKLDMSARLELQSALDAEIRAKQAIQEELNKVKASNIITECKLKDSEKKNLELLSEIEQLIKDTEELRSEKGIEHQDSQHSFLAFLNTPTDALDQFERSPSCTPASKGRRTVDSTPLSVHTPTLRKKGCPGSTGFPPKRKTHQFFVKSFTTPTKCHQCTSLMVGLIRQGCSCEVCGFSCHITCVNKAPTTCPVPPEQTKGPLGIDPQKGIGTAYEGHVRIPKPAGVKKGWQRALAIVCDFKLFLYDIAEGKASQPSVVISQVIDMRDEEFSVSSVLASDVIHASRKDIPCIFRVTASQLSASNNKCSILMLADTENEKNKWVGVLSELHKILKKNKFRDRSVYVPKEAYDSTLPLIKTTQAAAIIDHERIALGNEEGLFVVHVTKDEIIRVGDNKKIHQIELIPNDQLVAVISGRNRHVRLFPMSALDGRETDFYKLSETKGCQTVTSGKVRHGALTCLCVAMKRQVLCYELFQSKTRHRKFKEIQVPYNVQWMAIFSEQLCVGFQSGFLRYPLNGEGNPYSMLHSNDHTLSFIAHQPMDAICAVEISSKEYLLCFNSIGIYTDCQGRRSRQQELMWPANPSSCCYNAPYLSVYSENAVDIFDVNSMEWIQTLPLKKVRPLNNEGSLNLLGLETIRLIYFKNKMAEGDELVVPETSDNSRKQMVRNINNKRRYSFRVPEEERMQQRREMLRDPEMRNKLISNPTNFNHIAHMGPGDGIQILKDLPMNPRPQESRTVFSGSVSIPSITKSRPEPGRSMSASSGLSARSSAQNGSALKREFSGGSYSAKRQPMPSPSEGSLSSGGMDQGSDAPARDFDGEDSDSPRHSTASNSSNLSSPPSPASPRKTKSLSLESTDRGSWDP

ANGM-CSS [13] = test: Induction of human GSC differentiation derived from ANGM-CSS cells assessed as down regulation of CD133 mRNA expression at 1 uM after 7 days by RT-PCR analysis; format: functional, cell-based
[14] = Antiproliferative activity against human U118MG cells assessed as inhibition of cell growth after 96 hrs by WST1 assay; format: functional; settings: U-118-MG
[15] = biological target: Serine/threonine-protein kinase B-raf (Homo sapiens) (UniProt P15056); test: Inhibition of BRAF (unknown origin) at 1 uM by selectscreen kinase profiling assay in presence of ATP
Sequence of Serine/threonine-protein kinase B-raf (Homo sapiens) (P15056 whole entry): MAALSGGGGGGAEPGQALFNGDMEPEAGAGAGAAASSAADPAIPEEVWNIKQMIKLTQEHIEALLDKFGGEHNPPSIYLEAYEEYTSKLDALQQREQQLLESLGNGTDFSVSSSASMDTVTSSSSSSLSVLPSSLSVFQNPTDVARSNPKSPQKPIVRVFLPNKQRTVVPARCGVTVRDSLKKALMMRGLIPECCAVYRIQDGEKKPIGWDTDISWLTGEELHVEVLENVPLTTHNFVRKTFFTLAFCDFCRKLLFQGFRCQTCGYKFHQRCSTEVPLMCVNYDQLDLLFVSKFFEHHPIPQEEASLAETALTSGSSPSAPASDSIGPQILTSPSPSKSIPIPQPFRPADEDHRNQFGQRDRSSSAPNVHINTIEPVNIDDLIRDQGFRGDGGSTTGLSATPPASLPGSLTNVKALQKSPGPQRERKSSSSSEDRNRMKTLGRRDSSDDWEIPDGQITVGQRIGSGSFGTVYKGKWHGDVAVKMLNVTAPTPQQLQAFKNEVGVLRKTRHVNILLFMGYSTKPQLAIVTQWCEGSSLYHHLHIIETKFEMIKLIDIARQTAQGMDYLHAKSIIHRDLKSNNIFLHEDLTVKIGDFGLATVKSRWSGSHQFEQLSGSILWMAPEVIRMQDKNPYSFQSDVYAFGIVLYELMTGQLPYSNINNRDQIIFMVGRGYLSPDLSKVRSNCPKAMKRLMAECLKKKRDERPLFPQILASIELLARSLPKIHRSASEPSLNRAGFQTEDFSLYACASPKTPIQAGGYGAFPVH

[16] = biological target: RAC-alpha serine/threonine-protein kinase (Homo sapiens) (UniProt P31749); test: Inhibition of recombinant Akt1 (unknown origin) incubated for 1 hr by Z'Lyte assay
[17] = biological target: CDK7/Cyclin H/MNAT1 (Homo sapiens) (UniProt P51946+P50613+P51948); test: Inhibition of CDK7/cyclin H/MNAT1 (unknown origin) at 1 uM by selectscreen kinase profiling assay in presence of ATP; format: protein-complex assay
[18] = biological target: PI3-kinase p110-alpha/p85-alpha (Homo sapiens) (UniProt P27986+P42336); test: Inhibition of PIK3CA/PIK3R1 (unknown origin) at 1 uM by selectscreen kinase profiling assay in presence of ATP; format: protein-complex assay
[19] = biological target: Serine/threonine-protein kinase mTOR (Homo sapiens) (UniProt P42345); test: Inhibition of mTOR (unknown origin) at 1 uM by selectscreen kinase profiling assay in presence of ATP
[20] = Induction of apoptosis in human GSC derived from ANGM-CSS cells assessed as dead cells at 1 uM after 7 days by annexin V-FITC/7-AAD dual staining based cell analysis (reference value: 2.33%); format: functional
[21] = biological target: Protein kinase C alpha type (Homo sapiens) (UniProt P17252); test: Inhibition of PKCalpha (unknown origin) at 1 uM by selectscreen kinase profiling assay in presence of ATP
[22] = biological target: Cyclin-dependent kinase 5/CDK5 activator 1 (Homo sapiens) (UniProt Q00535+Q15078); test: Inhibition of CDK5/p25 (unknown origin) at 1 uM by selectscreen kinase profiling assay in presence of ATP; format: protein-complex assay
Sequence of Cyclin-dependent kinase 5/CDK5 activator 1 (Homo sapiens) (Q00535 whole entry): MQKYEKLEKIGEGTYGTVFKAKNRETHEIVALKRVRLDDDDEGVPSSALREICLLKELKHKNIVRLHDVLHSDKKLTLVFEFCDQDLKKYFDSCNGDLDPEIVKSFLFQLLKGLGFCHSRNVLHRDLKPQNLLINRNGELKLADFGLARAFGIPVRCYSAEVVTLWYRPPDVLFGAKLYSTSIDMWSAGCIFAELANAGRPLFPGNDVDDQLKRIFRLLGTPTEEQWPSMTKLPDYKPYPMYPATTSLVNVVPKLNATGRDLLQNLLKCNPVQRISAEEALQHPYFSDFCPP
Sequence of Cyclin-dependent kinase 5/CDK5 activator 1 (Homo sapiens) (Q15078 99-307 partner limits assumed): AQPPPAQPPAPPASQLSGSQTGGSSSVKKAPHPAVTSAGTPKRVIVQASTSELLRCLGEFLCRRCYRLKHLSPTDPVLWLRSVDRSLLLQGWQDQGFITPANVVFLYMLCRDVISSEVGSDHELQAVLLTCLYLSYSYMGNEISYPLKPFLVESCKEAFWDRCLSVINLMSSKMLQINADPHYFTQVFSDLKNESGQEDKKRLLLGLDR

[23] = biological target: Mitogen-activated protein kinase 14 (Homo sapiens) (UniProt Q16539); test: Inhibition of p38 alpha (unknown origin) at 1 uM by selectscreen kinase profiling assay in presence of ATP
Sequence of Mitogen-activated protein kinase 14 (Homo sapiens) (Q16539 whole entry): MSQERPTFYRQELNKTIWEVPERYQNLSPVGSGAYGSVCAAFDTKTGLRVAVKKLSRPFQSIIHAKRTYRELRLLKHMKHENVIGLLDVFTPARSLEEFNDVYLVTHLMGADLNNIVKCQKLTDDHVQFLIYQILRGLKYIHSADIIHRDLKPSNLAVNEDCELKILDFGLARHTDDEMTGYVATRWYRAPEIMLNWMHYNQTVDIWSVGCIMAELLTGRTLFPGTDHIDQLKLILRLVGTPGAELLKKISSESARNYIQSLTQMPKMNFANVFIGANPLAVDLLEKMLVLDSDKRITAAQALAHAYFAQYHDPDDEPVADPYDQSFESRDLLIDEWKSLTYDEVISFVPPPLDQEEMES

[24] = Antiproliferative activity against human ANGM-CSS cells assessed as inhibition of cell growth after 96 hrs by WST1 assay; format: functional
[25] = biological target: Casein kinase I isoform gamma-1 (Homo sapiens) (UniProt Q9HCP0); test: Inhibition of CK1gamma1 (unknown origin) at 1 uM by selectscreen kinase profiling assay in presence of ATP
[26] = biological target: Serine/threonine-protein kinase Chk1 (Homo sapiens, UniProt O14757); test: Inhibition of CHK1 (unknown origin) in presence of 10 uM ATP incubated for 1 hr by Z'Lyte assay
Sequence of Serine/threonine-protein kinase Chk1 (O14757 whole entry): as the sequence (O14757 whole entry) above

[27] = biological target: Dual specificity mitogen-activated protein kinase kinase 2 (Homo sapiens) (UniProt P36507); test: Inhibition of MEK2 (unknown origin) at 1 uM by selectscreen kinase profiling assay in presence of ATP
[28] = biological target: Glycogen synthase kinase-3 alpha (Homo sapiens, UniProt P49840); test: Inhibition of GSK3alpha (unknown origin) at 1 uM by selectscreen kinase profiling assay in presence of ATP

COc1cc2c(cc1OC)CN(CC(=O)Nc1ccc3c(c1)/C(=C/c1cnc[nH]1)C(=O)N3)CC2
Activity [1]: 6.77%
Activity (ANGM-CSS [2]): Active
inhibition [3]: 37%
IC50 [4]: 0.98 µM
Activity [5]: 4.1%
inhibition [6]: 30%
inhibition [7]: 26%
Activity [8]: 17.2%
inhibition [9]: 61%
Activity [10]: 11.87%
inhibition [11]: -5%
inhibition [12]: -8%
Activity (ANGM-CSS [13]): Active
GI50 [14]: 29.9 µM
inhibition [15]: 28%
inhibition [16]: inactive
inhibition [17]: -8%
inhibition [18]: -6%
inhibition [19]: -4%
Activity [20]: 1.1%
inhibition [21]: -2%
inhibition [22]: 45%
inhibition [23]: 4%
GI50 [24]: 7.5 µM
inhibition [25]: -4%
IC50 [26]: 0.274 µM
inhibition [27]: 37%
inhibition [28]: 59%

Source: ChEMBL document CHEMBL3734692, “Design and synthesis of 2-oxindole based multi-targeted inhibitors of PDK1/Akt signaling pathway for the treatment of glioblastoma multiforme” (Eur J Med Chem, 2015)
